Where two headings read alike, the source gives them in different places.
Legend:
[1] = system: HCV replicon; experiment: HCV replicon FRET assay; assay type: cell-based; settings: Hepatitis C virus, FRET assay, read-out: EC50*
Procedure, shortened: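 HCV replicon cells, with or without Renilla luciferase reporter, incubated with titrated compounds at 37 °C; Alamar blue read for cytotoxicity. NS3 protease activity read from lysates with 20 μM EDANS/DABCYL FRET peptide (340/490 nm, kinetic), or by Dual-Glo luciferase. Background from highest protease-inhibitor wells; EC50 = 50% signal reduction.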

[2] = target: T1, HCV NS5B (Hepatitis C virus genotype 1b, UniProt Q9WMX2); experiment: HCV NS5B RdRp enzyme assay (preincubation protocol); assay type: biochemical
T1 construct: The protein was expressed with an 18 amino acid C-terminal truncation to enhance the solubility; made in house; host or cells: E. coli BL21 (DE3), pET21a
T1 sequence (Q9WMX2 2420-2992): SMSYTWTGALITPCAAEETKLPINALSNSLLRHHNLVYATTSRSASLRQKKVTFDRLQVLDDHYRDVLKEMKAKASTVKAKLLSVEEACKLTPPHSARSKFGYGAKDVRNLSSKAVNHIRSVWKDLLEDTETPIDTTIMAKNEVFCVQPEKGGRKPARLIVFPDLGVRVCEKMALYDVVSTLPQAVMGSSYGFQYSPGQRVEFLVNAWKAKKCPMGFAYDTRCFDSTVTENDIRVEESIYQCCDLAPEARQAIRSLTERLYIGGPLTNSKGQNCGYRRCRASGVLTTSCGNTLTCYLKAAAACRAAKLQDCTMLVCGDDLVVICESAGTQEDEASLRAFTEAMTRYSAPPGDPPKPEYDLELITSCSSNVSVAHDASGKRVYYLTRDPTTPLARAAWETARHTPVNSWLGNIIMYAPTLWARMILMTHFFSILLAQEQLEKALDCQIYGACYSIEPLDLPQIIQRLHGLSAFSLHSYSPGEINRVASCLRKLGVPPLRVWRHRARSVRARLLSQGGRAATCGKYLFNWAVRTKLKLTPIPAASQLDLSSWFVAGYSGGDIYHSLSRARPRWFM
Procedure, shortened: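 C-terminally truncated (Δ18) genotype 1b NS5B from E. coli, 14 nM, added to compound, then polyA template (0.2 nM), 3H-UTP (0.29 μM) and oligo-dT12 primer precaptured on streptavidin SPA beads. 4 h at 30 °C, pH 7.5, 2% DMSO; SPA readout; IC50 from seven concentrations by logistic fit.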

Compound	EC50 ([1]; Table 1)	IC50 ([2]; Table 1, read-out: IC50*)	EC50 ([1]; Table 1b)	IC50 ([2]; Table 1b, read-out: IC50*)	further results
COc1ccc2c(c1)CC(C(=O)N(C)CC(=O)N1CCOCC1)Cn1c-2c(C2CCCCC2)c2ccc(C(=O)NS(=O)(=O)N(C)C)cc21 (stereo not shown)					EC50 ([1]; Table 1a): 30 to 1000 nM; IC50 ([2]; Table 1a, read-out: IC50*): < 20 nM
CN1CCC2(CC1)CN(C(=O)C1=Cc3ccccc3-c3c(C4CCCCC4)c4ccc(C(=O)O)cc4n3C1)C2	70 to 1000 nM	10 to 1000 nM			
COc1ccc2c(c1)C=C(C(=O)N1C[C@@H](C)O[C@@H](C)C1)Cn1c-2c(C2CCCCC2)c2ccc(C(=O)NS(=O)(=O)N3CCC3)cc21			30 to 1000 nM	20 to 1000 nM	
CN(C)S(=O)(=O)NC(=O)c1ccc2c(C3CCCCC3)c3n(c2c1)CC(NC(=O)N1CCOCC1)Cc1ccccc1-3 (stereo not shown) [drawing 141]	70 to 1000 nM	10 to 1000 nM			
CN(C)S(=O)(=O)NC(=O)c1ccc2c(C3CCCCC3)c3n(c2c1)CC(C(=O)N1CCN(C(=O)C2CC2)CC1)=Cc1ccccc1-3	70 to 1000 nM	10 to 1000 nM			
O=C(O)c1ccc2c(C3CCCCC3)c3n(c2c1)CC(C(=O)N1CCC(N2CC[C@H](F)C2)CC1)=Cc1ccccc1-3	70 to 1000 nM	10 to 1000 nM			
CCN(C)C(=O)NC1Cc2cc(OC)ccc2-c2c(C3CCCCC3)c3ccc(C(=O)NS(=O)(=O)N(C)C)cc3n2C1 (stereo not shown)			30 to 1000 nM	20 to 1000 nM	
COc1ccc2c(c1)CC(C(=O)NCc1cn(C)cn1)Cn1c-2c(C2CCCCC2)c2ccc(C(=O)NS(=O)(=O)N(C)C)cc21 (stereo not shown)					EC50 ([1]; Table 1a): 30 to 1000 nM; IC50 ([2]; Table 1a, read-out: IC50*): 10 to 1000 nM
O=C(O)c1ccc2c(C3CCCCC3)c3n(c2c1)CC(C(=O)N1CCC(n2ccnn2)CC1)=Cc1ccccc1-3	70 to 1000 nM	10 to 1000 nM			
CN(C)S(=O)(=O)NC(=O)c1ccc2c(C3CCCCC3)c3n(c2c1)CC(C(=O)N1CCCC(=O)N1)=Cc1ccccc1-3 [drawing 138]	70 to 1000 nM	10 to 1000 nM			
COc1ccc2c(c1)CC(NC(=O)N(C)CC1CCOCC1)Cn1c-2c(C2CCCCC2)c2ccc(C(=O)NS(=O)(=O)N(C)C)cc21 (stereo not shown)			30 to 1000 nM	20 to 1000 nM	
COc1ccc2c(c1)C=C(C(=O)N1CCC(N3CCOCC3)CC1)Cn1c-2c(C2CCCCC2)c2ccc(C(=O)O)cc21	70 to 1000 nM	10 to 1000 nM			
C[C@@H]1CN(C(=O)C2=Cc3ccccc3-c3c(C4CCCCC4)c4ccc(C(=O)NCCN5CCOCC5)cc4n3C2)C[C@H](C)O1	1000 to 10000 nM	10 to 1000 nM			
O=C(NCc1cnn[nH]1)c1ccc2c(C3CCCCC3)c3n(c2c1)CC(C(=O)N1CCOCC1)=Cc1ccccc1-3	70 to 1000 nM	10 to 1000 nM			
COc1ccc2c(c1)CC(C(=O)N(C)C1CCOCC1)Cn1c-2c(C2CCCCC2)c2ccc(C(=O)NS(=O)(=O)N(C)C)cc21 (stereo not shown)					EC50 ([1]; Table 1a): 30 to 1000 nM; IC50 ([2]; Table 1a, read-out: IC50*): 10 to 1000 nM
COc1ccc2c(c1)C=C(C(=O)N(C)CC(=O)N1CC(OC)C1)Cn1c-2c(C2CCCCC2)c2ccc(C(=O)NS(=O)(=O)N(C)C)cc21					EC50 ([1]; Table 1a): 30 to 1000 nM; IC50 ([2]; Table 1a, read-out: IC50*): 10 to 1000 nM
O=C(O)c1ccc2c(C3CCCCC3)c3n(c2c1)CC(C(=O)N1CCC(N2CCCC(F)C2)CC1)=Cc1ccccc1-3 (stereo not shown)	70 to 1000 nM	10 to 1000 nM			
COc1ccc2c(c1)C=C(C(=O)N1CC(O)C1)Cn1c-2c(C2CCCCC2)c2ccc(C(=O)NS(=O)(=O)N(C)C)cc21			30 to 1000 nM	20 to 1000 nM	
COc1ccc2c(c1)CC(C(=O)N1CCN(CCO)CC1)Cn1c-2c(C2CCCCC2)c2ccc(C(=O)NS(=O)(=O)N(C)C)cc21 (stereo not shown)			30 to 1000 nM	20 to 1000 nM	
COCCNC(=O)CN(C)C(=O)NC1Cc2cc(OC)ccc2-c2c(C3CCCCC3)c3ccc(C(=O)NS(=O)(=O)N(C)C)cc3n2C1 (stereo not shown)			30 to 1000 nM	20 to 1000 nM	
CC(=O)OCC(=O)N1CCN(C(=O)C2=Cc3ccccc3-c3c(C4CCCCC4)c4ccc(C(=O)NS(=O)(=O)N5CCOCC5)cc4n3C2)CC1	70 to 1000 nM	10 to 1000 nM			
CN(C)S(=O)(=O)NC(=O)c1ccc2c(C3CCCCC3)c3n(c2c1)CC(C(=O)N1CCC(N2CC[C@@H](F)C2)CC1)=Cc1ccccc1-3	70 to 1000 nM	10 to 1000 nM			
COc1ccc2c(c1)C=C(C(=O)N(C)[C@H](C(=O)O)C(C)C)Cn1c-2c(C2CCCCC2)c2ccc(C(=O)NS(=O)(=O)N(C)C)cc21			30 to 1000 nM	< 20 nM	
COc1ccc2c(c1)C=C(C(=O)N1CCOCC1)Cn1c-2c(C2CCCCC2)c2ccc(C(=O)NS(=O)(=O)N3CCC3)cc21			30 to 1000 nM	20 to 1000 nM	
COC(=O)c1ccc2c(C3CCCCC3)c3n(c2c1)CC(C(=O)N1CC[C@H](F)C1)=Cc1ccccc1-3	> 370 nM	> 1000 nM			
NC(=O)C1CCN(C(=O)C2=Cc3ccccc3-c3c(C4CCCCC4)c4ccc(C(=O)O)cc4n3C2)C1 (stereo not shown)	1000 to 10000 nM	10 to 1000 nM			

— patent US7473688B2, “Indolobenzazepine HCV NS5B inhibitors” (Bristol-Myers Squibb Company, priority 2005, dated 2009)
